Data reported in article PMC9841523 (Journal of Medicinal Chemistry, 2022).

Experiments:
[1] = molecular target: T1, M3(h) (antagonist radioligand) (Homo sapiens, UniProt P20309); test: Eurofins Safety Screen 44; type: binding; details: read-out: % Inhibition of Control Values
T1 construct: purchased ActivX Biosciences (KiNativ)

PI4KA, PI4KAP2 = test: KiNativ kinase panel; type: cell-based, human; details: 1 μM, MCF-7 Cells, ATP
MASTL = molecular target: T2, MASTL (Homo sapiens, UniProt Q96GX5); test: KiNativ kinase panel; type: cell-based; details: 1 μM, MCF-7 Cells
T2 construct: purchased ActivX Biosciences (KiNativ)
T2 sequence (Q96GX5 1-879): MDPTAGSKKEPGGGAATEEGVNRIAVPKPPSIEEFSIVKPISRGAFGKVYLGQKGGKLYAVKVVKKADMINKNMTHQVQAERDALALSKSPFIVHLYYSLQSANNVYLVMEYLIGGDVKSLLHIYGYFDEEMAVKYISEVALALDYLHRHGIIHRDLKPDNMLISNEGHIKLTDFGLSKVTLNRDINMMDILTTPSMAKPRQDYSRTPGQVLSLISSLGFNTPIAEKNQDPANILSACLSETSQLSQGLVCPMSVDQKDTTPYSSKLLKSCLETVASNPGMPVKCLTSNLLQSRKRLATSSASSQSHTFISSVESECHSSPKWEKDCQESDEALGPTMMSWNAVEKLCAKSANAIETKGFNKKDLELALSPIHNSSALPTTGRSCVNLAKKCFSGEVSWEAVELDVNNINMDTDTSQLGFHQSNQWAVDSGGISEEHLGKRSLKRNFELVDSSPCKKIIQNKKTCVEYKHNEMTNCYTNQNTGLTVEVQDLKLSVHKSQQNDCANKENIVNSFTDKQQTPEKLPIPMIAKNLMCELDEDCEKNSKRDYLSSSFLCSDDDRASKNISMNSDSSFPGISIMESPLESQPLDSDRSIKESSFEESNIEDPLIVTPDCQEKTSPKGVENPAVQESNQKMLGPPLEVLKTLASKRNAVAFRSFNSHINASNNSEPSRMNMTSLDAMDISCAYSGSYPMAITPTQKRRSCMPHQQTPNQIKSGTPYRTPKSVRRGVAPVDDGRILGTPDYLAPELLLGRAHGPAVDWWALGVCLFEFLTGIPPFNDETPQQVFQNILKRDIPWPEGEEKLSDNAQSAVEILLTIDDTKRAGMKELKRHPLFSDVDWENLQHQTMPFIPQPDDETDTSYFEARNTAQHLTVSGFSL

IRAK4 = molecular target: T3, IRAK4 (Homo sapiens, UniProt Q9NWZ3); test: KiNativ kinase panel; type: cell-based; details: 1 μM, MCF-7 Cells
T3 construct: MCF7 cells were exposed to; endogenous in cells; host or cells: MCF7
T3 sequence (Q9NWZ3 1-460): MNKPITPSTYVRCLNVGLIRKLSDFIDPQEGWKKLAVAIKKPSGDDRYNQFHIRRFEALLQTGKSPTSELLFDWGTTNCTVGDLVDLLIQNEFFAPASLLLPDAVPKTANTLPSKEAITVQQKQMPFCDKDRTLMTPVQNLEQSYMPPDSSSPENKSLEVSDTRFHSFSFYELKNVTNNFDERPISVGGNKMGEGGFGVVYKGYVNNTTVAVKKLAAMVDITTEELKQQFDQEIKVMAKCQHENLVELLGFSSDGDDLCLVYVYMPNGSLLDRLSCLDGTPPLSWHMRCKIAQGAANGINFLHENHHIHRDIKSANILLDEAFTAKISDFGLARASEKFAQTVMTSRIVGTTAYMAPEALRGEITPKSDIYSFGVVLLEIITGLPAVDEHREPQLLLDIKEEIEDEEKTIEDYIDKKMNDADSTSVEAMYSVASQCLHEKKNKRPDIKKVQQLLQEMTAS

[2] = tested on: MCF-7 (PIK3CA^E545K) cell line-derived xenograft; test: 28-day study in the MCF-7 CDX model; details: for tumor volume: MCF-7 CDX, once weekly ip, 28-day study, most significant at 3 or 10 mg/kg; for tolerability (body weight): up to 10 mg/kg ip once weekly
Procedure: Formulation containing transcutol/solutol HS15/H 2O (5/5/90, %w/w/v) was used, with a dose volume at 5 mL/kg.
Methods for xenograft studies.
MCF-7 xenograft studies. Female Balb/c nude mice (Shanghai Lingchang Biotechnology), 6–8 weeks of age, were inoculated subcutaneously in the right flank with MCF-7 (ECACC-
Three days prior to inoculation, mice were fed with drinking water containing β-estradiol (40 μg/mL). When mean tumor volume reached between 200–400 mm 3, mice were randomized into treatment groups (n = 12/group) for efficacy study, and tumor volume was measured twice weekly by caliper measurements for the duration of the study.
compounds were administered by ip injections at indicated doses, once weekly.

JAK1 domain1 = molecular target: T4, JAK1 domain1 (Homo sapiens, UniProt P23458); test: KiNativ kinase panel; type: cell-based; details: 1 μM; MCF-7 Cells; Activation Loop; QLASALSYLEDKDLVHGNVCTKNLLLAR
T4 construct: MCF7 cells were exposed to; endogenous in cells; host or cells: MCF7
T4 sequence (P23458 whole entry, the tested form may be a part): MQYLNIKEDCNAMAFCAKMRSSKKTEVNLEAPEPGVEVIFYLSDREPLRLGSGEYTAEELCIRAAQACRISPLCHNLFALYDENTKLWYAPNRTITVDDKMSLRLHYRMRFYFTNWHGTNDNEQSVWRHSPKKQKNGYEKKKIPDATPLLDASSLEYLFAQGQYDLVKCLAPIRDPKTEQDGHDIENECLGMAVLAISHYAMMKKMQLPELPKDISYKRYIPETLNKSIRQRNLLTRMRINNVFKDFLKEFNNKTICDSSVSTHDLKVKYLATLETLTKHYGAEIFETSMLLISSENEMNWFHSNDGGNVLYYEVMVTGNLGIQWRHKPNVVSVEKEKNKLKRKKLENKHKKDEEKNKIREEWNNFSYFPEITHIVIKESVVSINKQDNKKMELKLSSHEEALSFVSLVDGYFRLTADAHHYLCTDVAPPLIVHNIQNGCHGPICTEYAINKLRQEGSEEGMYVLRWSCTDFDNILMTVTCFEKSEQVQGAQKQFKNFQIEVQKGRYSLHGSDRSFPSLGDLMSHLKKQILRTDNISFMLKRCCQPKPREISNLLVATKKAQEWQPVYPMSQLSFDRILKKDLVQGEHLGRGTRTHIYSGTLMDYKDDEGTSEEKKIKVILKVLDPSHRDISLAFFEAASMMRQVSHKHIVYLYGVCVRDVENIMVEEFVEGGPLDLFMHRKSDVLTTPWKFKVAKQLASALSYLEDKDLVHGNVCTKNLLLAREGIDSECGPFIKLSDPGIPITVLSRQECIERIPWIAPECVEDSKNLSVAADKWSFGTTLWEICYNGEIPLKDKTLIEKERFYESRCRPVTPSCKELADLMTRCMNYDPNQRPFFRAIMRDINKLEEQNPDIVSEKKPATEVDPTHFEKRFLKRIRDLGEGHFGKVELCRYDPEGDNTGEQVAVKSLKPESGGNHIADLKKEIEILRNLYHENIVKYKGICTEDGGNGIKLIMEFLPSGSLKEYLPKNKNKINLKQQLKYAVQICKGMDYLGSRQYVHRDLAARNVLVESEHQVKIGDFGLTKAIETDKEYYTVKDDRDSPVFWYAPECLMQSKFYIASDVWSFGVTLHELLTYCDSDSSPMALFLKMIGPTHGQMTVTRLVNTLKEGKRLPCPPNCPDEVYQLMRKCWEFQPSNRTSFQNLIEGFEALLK

[3] = molecular target: T5, 5-HT3(h) (antagonist radioligand) (Homo sapiens, UniProt P46098); test: Eurofins Safety Screen 44; type: binding; details: read-out: % Inhibition of Control Values
T5 construct: purchased ActivX Biosciences (KiNativ)
T5 sequence (P46098 24-478): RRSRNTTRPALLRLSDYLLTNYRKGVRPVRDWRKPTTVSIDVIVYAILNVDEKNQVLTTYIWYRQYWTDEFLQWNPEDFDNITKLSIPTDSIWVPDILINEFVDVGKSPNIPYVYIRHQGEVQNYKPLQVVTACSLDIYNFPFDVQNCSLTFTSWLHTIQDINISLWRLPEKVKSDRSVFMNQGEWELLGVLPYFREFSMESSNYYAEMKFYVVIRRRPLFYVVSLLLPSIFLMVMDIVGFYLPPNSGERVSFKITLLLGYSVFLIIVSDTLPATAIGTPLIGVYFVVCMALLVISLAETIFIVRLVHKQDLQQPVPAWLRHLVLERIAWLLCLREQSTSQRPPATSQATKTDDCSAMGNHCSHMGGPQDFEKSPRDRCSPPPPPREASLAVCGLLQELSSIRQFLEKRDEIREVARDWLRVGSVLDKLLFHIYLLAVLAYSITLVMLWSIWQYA

AKT2, AKT3 = test: KiNativ kinase panel; type: cell-based, human; details: 1 μM, MCF-7 Cells, ATP Loop
TYK2_Domain2 domain2 = molecular target: T6, TYK2_Domain2 domain2 (Homo sapiens, UniProt P29597); test: KiNativ kinase panel; type: cell-based; details: 1 μM; MCF-7 Cells; Activation Loop; IGDFGLAKAVPEGHEYYR
T6 construct: Briefly, MCF7 cells were exposed to; endogenous in cells; host or cells: MCF7
T6 sequence (P29597 whole entry, the tested form may be a part): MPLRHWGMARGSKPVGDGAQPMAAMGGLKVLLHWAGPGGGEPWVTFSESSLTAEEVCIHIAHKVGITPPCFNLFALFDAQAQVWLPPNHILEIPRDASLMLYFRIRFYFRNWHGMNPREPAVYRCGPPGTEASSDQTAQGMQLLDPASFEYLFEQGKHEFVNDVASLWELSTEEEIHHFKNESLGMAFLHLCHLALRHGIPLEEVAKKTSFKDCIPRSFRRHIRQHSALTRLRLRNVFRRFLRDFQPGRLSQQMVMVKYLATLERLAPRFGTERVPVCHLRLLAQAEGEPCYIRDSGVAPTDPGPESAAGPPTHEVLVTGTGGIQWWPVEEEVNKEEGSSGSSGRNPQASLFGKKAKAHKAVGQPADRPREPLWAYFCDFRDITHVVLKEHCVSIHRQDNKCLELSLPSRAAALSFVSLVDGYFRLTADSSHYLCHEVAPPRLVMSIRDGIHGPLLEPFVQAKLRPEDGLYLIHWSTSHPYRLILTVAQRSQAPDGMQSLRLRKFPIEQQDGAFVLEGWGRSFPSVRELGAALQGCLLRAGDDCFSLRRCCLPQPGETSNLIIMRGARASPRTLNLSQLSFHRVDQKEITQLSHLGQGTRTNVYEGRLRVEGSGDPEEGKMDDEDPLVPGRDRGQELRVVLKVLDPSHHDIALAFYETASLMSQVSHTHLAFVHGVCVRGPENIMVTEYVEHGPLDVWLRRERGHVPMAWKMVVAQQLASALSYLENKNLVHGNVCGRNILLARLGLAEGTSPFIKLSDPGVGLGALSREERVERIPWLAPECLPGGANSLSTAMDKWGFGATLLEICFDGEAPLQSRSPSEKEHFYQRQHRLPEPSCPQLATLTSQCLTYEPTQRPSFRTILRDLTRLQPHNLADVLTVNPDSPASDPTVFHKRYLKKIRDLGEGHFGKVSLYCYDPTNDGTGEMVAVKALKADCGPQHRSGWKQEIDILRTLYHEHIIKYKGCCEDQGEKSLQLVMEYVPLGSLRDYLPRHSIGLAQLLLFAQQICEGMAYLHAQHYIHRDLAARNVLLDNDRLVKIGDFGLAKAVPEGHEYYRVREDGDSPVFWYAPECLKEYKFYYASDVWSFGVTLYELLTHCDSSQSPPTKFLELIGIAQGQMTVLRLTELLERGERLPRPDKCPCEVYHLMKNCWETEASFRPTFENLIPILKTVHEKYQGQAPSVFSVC

[4] = molecular target: T7, H2(h) (antagonist radioligand) (Homo sapiens, UniProt P25021); test: Eurofins Safety Screen 44; type: binding; details: read-out: % Inhibition of Control Values
T7 construct: purchased ActivX Biosciences (KiNativ)
T7 sequence (P25021 whole entry): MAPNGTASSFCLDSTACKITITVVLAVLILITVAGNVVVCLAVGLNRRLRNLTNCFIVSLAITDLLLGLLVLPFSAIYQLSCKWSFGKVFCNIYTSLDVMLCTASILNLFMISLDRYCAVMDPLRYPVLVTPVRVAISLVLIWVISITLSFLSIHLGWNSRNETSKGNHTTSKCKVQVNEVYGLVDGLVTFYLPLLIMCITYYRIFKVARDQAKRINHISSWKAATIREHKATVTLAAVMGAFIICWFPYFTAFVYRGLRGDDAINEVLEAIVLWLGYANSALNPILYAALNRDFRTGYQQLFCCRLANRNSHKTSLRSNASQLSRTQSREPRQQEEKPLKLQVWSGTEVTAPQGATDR

CDK11, CDK8 = test: KiNativ kinase panel; type: cell-based, human; details: 1 μM, MCF-7 Cells, Lys2
ULK1 = molecular target: T8, ULK1 (Homo sapiens, UniProt O75385); test: KiNativ kinase panel; type: cell-based; details: 1 μM; MCF-7 Cells; Lys2; DLKPQNILLSNPAGR
T8 construct: Briefly, MCF7 cells were exposed to; endogenous in cells; host or cells: MCF7
T8 sequence (O75385 whole entry): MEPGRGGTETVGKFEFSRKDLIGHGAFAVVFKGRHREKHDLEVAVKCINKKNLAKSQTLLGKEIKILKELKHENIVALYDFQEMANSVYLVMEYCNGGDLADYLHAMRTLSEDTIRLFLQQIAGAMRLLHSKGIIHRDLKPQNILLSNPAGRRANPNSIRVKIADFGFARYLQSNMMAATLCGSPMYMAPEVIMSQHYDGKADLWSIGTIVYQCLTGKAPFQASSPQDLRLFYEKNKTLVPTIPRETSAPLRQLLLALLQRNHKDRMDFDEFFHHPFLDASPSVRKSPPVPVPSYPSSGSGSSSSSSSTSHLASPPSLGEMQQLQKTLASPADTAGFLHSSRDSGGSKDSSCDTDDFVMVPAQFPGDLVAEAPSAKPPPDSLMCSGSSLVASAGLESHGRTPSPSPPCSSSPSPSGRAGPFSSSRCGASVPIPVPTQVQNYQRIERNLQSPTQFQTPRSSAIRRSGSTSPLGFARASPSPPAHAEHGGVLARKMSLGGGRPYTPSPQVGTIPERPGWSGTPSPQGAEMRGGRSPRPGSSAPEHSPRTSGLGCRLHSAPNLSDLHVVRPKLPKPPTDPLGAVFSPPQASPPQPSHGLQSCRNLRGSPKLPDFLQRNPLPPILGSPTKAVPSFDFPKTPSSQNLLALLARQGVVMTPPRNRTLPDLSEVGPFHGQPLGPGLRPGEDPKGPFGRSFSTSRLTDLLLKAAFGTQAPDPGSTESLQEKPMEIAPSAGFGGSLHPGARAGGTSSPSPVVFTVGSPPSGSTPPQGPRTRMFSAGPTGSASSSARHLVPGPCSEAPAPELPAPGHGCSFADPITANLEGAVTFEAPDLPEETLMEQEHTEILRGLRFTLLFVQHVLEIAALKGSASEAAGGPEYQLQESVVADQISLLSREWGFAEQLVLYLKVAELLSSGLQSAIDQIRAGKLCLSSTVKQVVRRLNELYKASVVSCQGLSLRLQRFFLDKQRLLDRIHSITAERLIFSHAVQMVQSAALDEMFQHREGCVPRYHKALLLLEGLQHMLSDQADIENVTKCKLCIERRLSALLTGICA

[5] = molecular target: T9, H1(h) (antagonist radioligand) (Homo sapiens, UniProt P35367); test: Eurofins Safety Screen 44; type: binding; details: read-out: % Inhibition of Control Values
T9 construct: purchased ActivX Biosciences (KiNativ)
T9 sequence (P35367 whole entry): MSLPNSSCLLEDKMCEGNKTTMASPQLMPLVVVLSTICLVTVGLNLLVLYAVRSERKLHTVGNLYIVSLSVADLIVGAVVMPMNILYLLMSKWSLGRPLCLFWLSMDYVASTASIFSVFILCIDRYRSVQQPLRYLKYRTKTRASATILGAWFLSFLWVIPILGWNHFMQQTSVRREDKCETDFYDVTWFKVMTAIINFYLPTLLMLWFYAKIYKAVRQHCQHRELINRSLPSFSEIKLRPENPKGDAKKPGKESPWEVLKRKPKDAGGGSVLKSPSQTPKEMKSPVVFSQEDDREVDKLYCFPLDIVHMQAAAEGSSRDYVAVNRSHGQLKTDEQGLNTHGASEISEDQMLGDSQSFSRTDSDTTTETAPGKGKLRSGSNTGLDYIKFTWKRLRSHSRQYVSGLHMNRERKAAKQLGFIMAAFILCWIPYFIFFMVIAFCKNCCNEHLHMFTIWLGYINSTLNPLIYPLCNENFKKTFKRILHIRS

KSR1, KSR2 = test: KiNativ kinase panel; type: cell-based, human; details: 1 μM, MCF-7 Cells, Activation Loop
MST4, YSK1 = test: KiNativ kinase panel; type: cell-based, human; details: 1 μM, MCF-7 Cells, Lys2
hERG potassium channel = hERG potassium channel (Homo sapiens, UniProt Q12809); test: Eurofins Safety Screen 44; details: probe [3H] Dofetilide
IKKe, TBK1 = test: KiNativ kinase panel; type: cell-based, human; details: 1 μM; MCF-7 Cells; Lys2; DIKPGNIMR
ABL, ARG = test: KiNativ kinase panel; type: cell-based, human; details: 1 μM, MCF-7 Cells

## CO[C@H]1C[C@@H]2CC[C@@H](C)[C@@](O)(O2)C(=O)C(=O)N2CCCC[C@H]2C(=O)O[C@H]([C@H](C)C[C@@H]2CC[C@@H](OC(=O)NCCOCCOCCOCCOCCOCCOCCOCCOCCC(=O)N3CCc4cc(Cn5nc(-c6ccc7oc(N)nc7c6)c6c(N)ncnc65)ccc4C3)[C@H](OC)C2)C[C@@H](O)[C@H](C)/C=C(\C)[C@@H](O)[C@@H](OC)C(=O)[C@H](C)C[C@H](C)/C=C/C=C/C=C/1C [compound 38]
[1]
  inhibition at 10 µM: -14.3%
PI4KA, PI4KAP2; […]
  KiNativ Kinase Panel Data: -38.9
MASTL; ATP Loop, GAFGKVYLGQK
  KiNativ Kinase Panel Data: 4.3
MASTL; Lys1, LYAVKVVK
  KiNativ Kinase Panel Data: 17.4
IRAK4; Lys1, GYVNNTTVAVKK
  KiNativ Kinase Panel Data: -7.0
IRAK4; Lys2, DIKSANILLDEAFTAK
  KiNativ Kinase Panel Data: -19.3
[2]
  tumor volume: reduction in tumor volume
  tolerability (body weight): acceptable tolerability profile
JAK1 domain1
  KiNativ Kinase Panel Data: 0.8
[3]
  inhibition at 10 µM: -4.6%
AKT2, AKT3; […]
  KiNativ Kinase Panel Data: -13.5
TYK2_Domain2 domain2
  KiNativ Kinase Panel Data: 15.6
[4]
  inhibition at 10 µM: -1.1%
CDK11, CDK8; […]
  KiNativ Kinase Panel Data: -39.0
ULK1
  KiNativ Kinase Panel Data: -11.7
[5]
  inhibition at 10 µM: -12.6%
KSR1, KSR2; […]
  KiNativ Kinase Panel Data: -19.2
MST4, YSK1; […]
  KiNativ Kinase Panel Data: 10.5
hERG potassium channel
  inhibition at 10 µM: -1.2%
IKKe, TBK1
  KiNativ Kinase Panel Data: -33.9
ABL, ARG; Activation Loop, […]
  KiNativ Kinase Panel Data: -3.4
ABL, ARG; Lys1, […]
  KiNativ Kinase Panel Data: -1.3

## CO[C@H]1C[C@@H]2CC[C@@H](C)[C@@](O)(O2)C(=O)C(=O)N2CCCC[C@H]2C(=O)O[C@H]([C@H](C)C[C@@H]2CC[C@@H](OC(=O)NCCOCCOCCOCCOCCOCCOCCOCCOCCC(=O)NCCS(=O)(=O)c3ccc(C(=O)N4CCOc5ccc(-c6ccc(N)nc6)cc5C4)c(C)c3F)[C@H](OC)C2)C[C@@H](O)[C@H](C)/C=C(\C)[C@@H](O)[C@@H](OC)C(=O)[C@H](C)C[C@H](C)/C=C/C=C/C=C/1C [compound 40]
PI4KA, PI4KAP2; SGTPMQSAAKAPYLAK
  KiNativ Kinase Panel Data: -5.7
MASTL; Lys1, LYAVKVVK
  KiNativ Kinase Panel Data: -10.0
IRAK4; Lys1, GYVNNTTVAVKK
  KiNativ Kinase Panel Data: -35.0
IRAK4; Lys2, DIKSANILLDEAFTAK
  KiNativ Kinase Panel Data: -35.4
[2]
  tumor volume: reduction in tumor volume
  tolerability (body weight): acceptable tolerability profile
JAK1 domain1
  KiNativ Kinase Panel Data: -1.7
AKT2, AKT3; GTFGKVILVR
  KiNativ Kinase Panel Data: -101.1
TYK2_Domain2 domain2
  KiNativ Kinase Panel Data: 1.9
CDK11, CDK8; DLKPANILVMGEGPER
  KiNativ Kinase Panel Data: -19.1
ULK1
  KiNativ Kinase Panel Data: -15.4
KSR1, KSR2; SKNVFYDNGK
  KiNativ Kinase Panel Data: -20.7
MST4, YSK1; DIKAANVLLSEQGDVK
  KiNativ Kinase Panel Data: -10.1
IKKe, TBK1
  KiNativ Kinase Panel Data: -21.1
ABL, ARG; Activation Loop, LMTGDTYTAHAGAKFPIK
  KiNativ Kinase Panel Data: 16.3
ABL, ARG; Lys1, YSLTVAVKTLKEDTMEVEEFLK
  KiNativ Kinase Panel Data: -25.3
